Experimental data from US20230203081A1, “LINCOSAMIDE ANTIBIOTICS AND USES THEREOF” (President and Fellows of Harvard College, priority 2020, published 2023).
≈ marks a conversion by molar mass, not a printed value. Like-named read-outs stand apart in the source and are kept apart here.

What was measured:
Format in all cases: cell-based
E. faecium Clinical VRE = assay: MIC (broth microdilution or agar dilution, CLSI); conditions: Enterococcus faecium; E. faecium Clinical VRE; read-out: MIC
Protocol: (§1) Minimum inhibitory concentrations (MICs) were determined by broth microdilution method or agar dilution method following the Clinical and Laboratory Standards Institute guidelines. Standard bacterial strains were obtained from American Type Culture Collection (ATCC). Other bacterial strains were obtained from hospitals and commercial sources, so noted in Table 11. Before the start of the MIC experiment, standard and test compound stock solutions were prepared in dimethyl sulfoxide (DMSO, Aldrich D2650) at a stock concentration of 5,120 μg/mL. The compound concentration range typically employed for each experiment was 128-0.06 μg/mL (2.5% final DMSO concentration). Clindamycin was used as a comparator in all experiments and each experiment was performed in triplicate. Specialized procedures were employed for streptococcal and anaerobic strains. All other bacterial strains were sub-cultured on blood agar plates (tryptic soy agar with 5% sheep blood, Hardy Diagnostics) and incubated overnight at 35° C. Organisms were suspended in cation-adjusted Mueller-Hinton broth (CaMHB, BD 212322) and optical density was adjusted to 0.5 McFarland standard. Suspensions were further diluted to obtain a final inoculum of 5×10^5 CFU/mL for broth microdilution experiments.

S. aureus cErmA = assay: MIC (broth microdilution or agar dilution, CLSI); conditions: Staphylococcus aureus; S. aureus cErmA; read-out: MIC
Protocol: as §1

P. aeruginosa ATCC 27853 = assay: MIC (broth microdilution or agar dilution, CLSI); conditions: Pseudomonas aeruginosa, ATCC27853; P. aeruginosa ATCC 27853; read-out: MIC
Protocol: as §1

E. faecalis ATCC 29212 = assay: MIC (broth microdilution or agar dilution, CLSI); conditions: Enterococcus faecalis, read-out: MIC
Protocol: (§2) Minimum inhibitory concentrations (MICs) were determined by broth microdilution method or agar dilution method following the Clinical and Laboratory Standards Institute guidelines. Standard bacterial strains were obtained from American Type Culture Collection (ATCC). Other bacterial strains were obtained from hospitals and commercial sources, so noted in Table 11. […] Specialized procedures were employed for streptococcal and anaerobic strains. All other bacterial strains were sub-cultured on blood agar plates (tryptic soy agar with 5% sheep blood, Hardy Diagnostics) and incubated overnight at 35° C. […] Suspensions were further diluted to obtain a final inoculum of 5×10^5 CFU/mL for broth microdilution experiments.

K. oxytoca Clinical = assay: MIC (broth microdilution or agar dilution, CLSI); conditions: Klebsiella oxytoca, read-out: MIC
Protocol: as §2

A. baumannii ATCC 19606 = assay: MIC (broth microdilution or agar dilution, CLSI); conditions: Acinetobacter baumannii, ATCC19606; A. baumannii ATCC 19606; read-out: MIC
Protocol: as §2

E. coli ATCC 25922 = assay: MIC (broth microdilution or agar dilution, CLSI); conditions: Escherichia coli, ATCC25922, read-out: MIC
Protocol: as §2

S. aureus ATCC 29213 = assay: MIC (broth microdilution or agar dilution, CLSI); conditions: Staphylococcus aureus, read-out: MIC
Protocol: as §2

S. pneumoniae ATCC 49619 = assay: MIC (broth microdilution or agar dilution, CLSI); conditions: Streptococcus pneumoniae, read-out: MIC
Protocol: as §2

E. coli LptD = assay: MIC (broth microdilution or agar dilution, CLSI); conditions: Escherichia coli, read-out: MIC
Protocol: as §2

S. pyogenes ATCC 19615 = assay: MIC (broth microdilution or agar dilution, CLSI); conditions: Streptococcus pyogenes, read-out: MIC
Protocol: as §2

E. coli ΔTolC = assay: microbe, parasite or virus in culture; conditions: Escherichia coli
Protocol: as §2

S. aureus hVISA = assay: MIC (broth microdilution or agar dilution, CLSI); conditions: Staphylococcus aureus; S. aureus HAV#204, hVISA; read-out: MIC
Protocol: as §2

S. aureus MMX 3035 cErmA = assay: MIC (broth microdilution or agar dilution, CLSI); conditions: Staphylococcus aureus, MMX3035CERMA; S. aureus HAV#031, MMX 3035; cErmA; read-out: MIC
Protocol: as §2

[1] = system: S. pneumoniae MMX 3028 cErmB; assay: MIC (broth microdilution or agar dilution, CLSI); conditions: Streptococcus pneumoniae, MMX3028CERMB; S. pneumoniae HAV#033; MMX 3028, cErmB; read-out: MIC
Protocol: as §2

[2] = system: S. aureus ATCC BAA-1707 (MRSA); assay: MIC (broth microdilution or agar dilution, CLSI); conditions: Staphylococcus aureus; S. aureus HAV#016, ATCC BAA-1707; MRSA; read-out: MIC
Protocol: as §2

[3] = system: E. faecalis MMX 847; cErmB; assay: MIC (broth microdilution or agar dilution, CLSI); conditions: Enterococcus faecalis; E. faecalis HAV#036, MMX 847; mac-resistant, cErmB; read-out: MIC
Protocol: as §2

[4] = system: S. pyogenes MMX 946; cErmB; assay: MIC (broth microdilution or agar dilution, CLSI); conditions: Streptococcus pyogenes; S. pyogenes HAV#035, MMX 946; cErmB, mac-resistant; read-out: MIC
Protocol: as §2

[5] = system: S. pneumoniae MMX 3031 cMefA; assay: MIC (broth microdilution or agar dilution, CLSI); conditions: Streptococcus pneumoniae, MMX3031CMEFA, S. pneumoniae HAV#034; MMX 3031, cMefA; read-out: MIC
Protocol: as §2

S. pneumoniae ATCC 6303 = assay: MIC (broth microdilution or agar dilution, CLSI); conditions: Streptococcus pneumoniae, ATCC6303; S. pneumoniae HAV#351, ATCC 6303; read-out: MIC
Protocol: as §2

[6] = system: broad panel of different clinical isolates; assay: microbe, parasite or virus in culture
Protocol: as §2

S. aureus BAA 977 iErmA = assay: microbe, parasite or virus in culture; conditions: Staphylococcus aureus, BAA-977 / MRSA
Protocol: as §2

S. aureus MP-549 msrA = assay: microbe, parasite or virus in culture; conditions: Staphylococcus aureus, MP549MSRA; S. aureus HAV#032, MP-549; MSR(A)
Protocol: as §2

[7] = ATCC29212, E. faecalis ATCC 29212
[8] = ATCC29213, S. aureus ATCC 29213
[9] = ATCC49619, S. pneumoniae ATCC 49619
[10] = ATCC19615, S. pyogenes ATCC 19615

With `CSC1O[C@H]([C@H](NC(=O)[C@H]2NC[C@@H]3C[C@H](CCF)CCO[C@H]32)[C@H](C)Cl)C(O)[C@@H](O)[C@H]1O` (stereo partly drawn) [FSA-10-09-099] the MIC (E. faecium Clinical VRE) was 16 µg/mL (≈ 33 µM), the MIC (S. aureus cErmA) was 32 µg/mL (≈ 66 µM) and the MIC (P. aeruginosa ATCC 27853) was > 128 µg/mL. For the same compound, the MIC (E. faecalis ATCC 29212; [7]) was 0.5 µg/mL (≈ 1.03 µM), the MIC (K. oxytoca Clinical; K. oxytoca Clinical) was 32 µg/mL (≈ 66 µM) and the MIC (A. baumannii ATCC 19606) was > 128 µg/mL. It also gave an MIC (E. coli ATCC 25922; E. coli ATCC 25922) of 32 µg/mL (≈ 66 µM), an MIC (S. aureus ATCC 29213; [8]) of 0.25 µg/mL (≈ 0.515 µM) and an MIC (S. pneumoniae ATCC 49619; [9]) of 0.25 µg/mL (≈ 0.515 µM). It also gave an MIC (E. coli LptD; E. coli LptD) of 4 µg/mL (≈ 8.25 µM), an MIC (S. pyogenes ATCC 19615; [10]) of 0.5 µg/mL (≈ 1.03 µM) and an MIC (E. coli ΔTolC; E. coli ΔTolC) of 1 µg/mL (≈ 2.06 µM).

`CSC1O[C@H]([C@H](NC(=O)[C@H]2NC[C@@H]3C[C@H](C)CCO[C@H]32)[C@H](C)Cl)C(O)[C@@H](O)[C@H]1O` (stereo partly drawn) [FSA-10-10-014] was tested, and the MIC (E. faecium Clinical VRE) was 64 µg/mL (≈ 141 µM), the MIC (S. aureus cErmA) was 64 µg/mL (≈ 141 µM) and the MIC (P. aeruginosa ATCC 27853) was > 128 µg/mL. For the same compound, the MIC (E. faecalis ATCC 29212; [7]) was 16 µg/mL (≈ 35.3 µM), the MIC (K. oxytoca Clinical; K. oxytoca Clinical) was 128 µg/mL (≈ 283 µM) and the MIC (A. baumannii ATCC 19606) was > 128 µg/mL. The MIC (E. coli ATCC 25922; E. coli ATCC 25922) was 64 µg/mL (≈ 141 µM), the MIC (S. aureus ATCC 29213; [8]) was 1 µg/mL (≈ 2.21 µM) and the MIC (S. pneumoniae ATCC 49619; [9]) was 2 µg/mL (≈ 4.42 µM). For the same compound, the MIC (E. coli LptD; E. coli LptD) was 8 µg/mL (≈ 17.7 µM), the MIC (S. pyogenes ATCC 19615; [10]) was 1 µg/mL (≈ 2.21 µM) and the MIC (E. coli ΔTolC; E. coli ΔTolC) was 8 µg/mL (≈ 17.7 µM).

`Cc1onc(-c2ccccc2)c1C(=O)N[C@@H]1C(=O)N2[C@@H]1SC(C)(C)[C@@H]2C(=O)O` [Oxacillin] was tested, and the MIC (S. aureus hVISA) was 64 µg/mL (≈ 159 µM), the MIC (S. aureus MMX 3035 cErmA) was > 64 µg/mL and the MIC [1] was 2 µg/mL (≈ 4.98 µM). The MIC [2] was > 64 µg/mL, the MIC (E. faecalis ATCC 29212; ATCC29212, E. faecalis HAV#005, ATCC 29212) was 32 µg/mL (≈ 79.7 µM) and the MIC (K. oxytoca Clinical; K. oxytoca HAV#450, Clinical) was > 64 µg/mL. The MIC (E. coli ATCC 25922; E. coli HAV#006, ATCC 25922) was > 64 µg/mL, the MIC [3] was 64 µg/mL (≈ 159 µM) and the MIC [4] was 0.25 µg/mL (≈ 0.623 µM). It also gave an MIC (S. aureus ATCC 29213; ATCC29213, S. aureus HAV#001, ATCC 29213, MP-549) of 0.5 µg/mL (≈ 1.25 µM), an MIC (S. pneumoniae ATCC 49619; ATCC49619, S. pneumoniae HAV#003, ATCC 49619) of 2 µg/mL (≈ 4.98 µM) and an MIC (E. coli LptD; E. coli HAV#040, LptD) of 4 µg/mL (≈ 9.96 µM). The MIC [5] was 16 µg/mL (≈ 39.9 µM), the MIC (S. pyogenes ATCC 19615; ATCC19615, S. pyogenes HAV#004, ATCC 19615) was 0.125 µg/mL (≈ 0.311 µM) and the MIC (S. pneumoniae ATCC 6303) was 0.5 µg/mL (≈ 1.25 µM). The MIC ([6]; Enterococcus faecalis, VRE, E. faecalis HAV#251, Clinical VRE) was > 64 µg/mL, the MIC ([6]; Staphylococcus aureus, MRSA, S. aureus HAV#0107, MRSA Col(Colindale, England)) was > 64 µg/mL and the MIC ([6]; Staphylococcus aureus, VISA, S. aureus HAV#203, Clinical (VISA)) was 64 µg/mL (≈ 159 µM). The MIC (S. aureus BAA 977 iErmA) was 0.5 µg/mL (≈ 1.25 µM), the MIC (E. coli ΔTolC; E. coli HAV#038, ΔTolC) was 16 µg/mL (≈ 39.9 µM) and the MIC (S. aureus MP-549 msrA) was 64 µg/mL (≈ 159 µM).
